In PMC6430017, “Structural and chemical insights into the covalent-allosteric inhibition of the protein kinase Akt” (Chemical Science, 2019):

Key:
Assay in all cases: SelectScreen Z'LYTE kinase profiling
Format in all cases: biochemical
Settings in all cases: ATP at apparent KM
BMX = molecular target: T1, BMX (Homo sapiens, UniProt P51813)
T1 sequence (P51813 1-675): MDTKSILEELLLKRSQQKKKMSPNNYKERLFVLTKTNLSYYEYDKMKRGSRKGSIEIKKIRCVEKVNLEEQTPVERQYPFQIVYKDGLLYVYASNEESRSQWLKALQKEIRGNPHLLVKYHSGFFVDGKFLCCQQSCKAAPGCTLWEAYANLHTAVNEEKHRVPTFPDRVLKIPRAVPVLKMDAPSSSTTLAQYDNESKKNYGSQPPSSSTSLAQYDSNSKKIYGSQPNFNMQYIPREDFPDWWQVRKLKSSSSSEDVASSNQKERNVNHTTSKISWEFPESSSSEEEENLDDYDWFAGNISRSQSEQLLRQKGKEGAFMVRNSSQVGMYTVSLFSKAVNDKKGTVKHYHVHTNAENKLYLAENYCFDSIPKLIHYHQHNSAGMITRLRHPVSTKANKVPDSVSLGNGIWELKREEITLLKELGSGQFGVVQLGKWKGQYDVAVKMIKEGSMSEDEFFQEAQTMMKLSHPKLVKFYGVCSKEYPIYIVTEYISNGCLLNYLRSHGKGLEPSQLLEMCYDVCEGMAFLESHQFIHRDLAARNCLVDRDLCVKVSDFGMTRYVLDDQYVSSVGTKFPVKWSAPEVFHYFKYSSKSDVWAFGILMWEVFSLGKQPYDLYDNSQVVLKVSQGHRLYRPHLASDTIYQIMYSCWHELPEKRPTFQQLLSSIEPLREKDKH
Description: (§1) protein kinases at a compound concentration of 1 µM. Measurements were performed in duplicates
(§2) and at the particular apparent ATP KM of each individual kinase employing the activity based Z’LYTE®
(§3) kinase assay of the SelectScreen® Kinase Profiling Services (ThermoFisher Scientific).
(§4) kinases at a compound concentration of 1 µM. Measurements were performed in duplicates and at
(§5) the particular apparent ATP KM of each individual kinase employing the activity based Z’LYTE® kinase
(§6) assay of the SelectScreen® Kinase Profiling Services (ThermoFisher Scientific).

PAK1 = PAK1 (Homo sapiens, UniProt Q13153)
Description: as §1, §2, §3, §4, §5, §6

PRKCG (PKC gamma) = PRKCG (PKC gamma) (Homo sapiens, UniProt P05129)
Description: as §1, §2, §3, §4, §5, §6

SGK (SGK1) = molecular target: T2, SGK (SGK1) (Homo sapiens, UniProt O00141)
T2 sequence (O00141 1-431): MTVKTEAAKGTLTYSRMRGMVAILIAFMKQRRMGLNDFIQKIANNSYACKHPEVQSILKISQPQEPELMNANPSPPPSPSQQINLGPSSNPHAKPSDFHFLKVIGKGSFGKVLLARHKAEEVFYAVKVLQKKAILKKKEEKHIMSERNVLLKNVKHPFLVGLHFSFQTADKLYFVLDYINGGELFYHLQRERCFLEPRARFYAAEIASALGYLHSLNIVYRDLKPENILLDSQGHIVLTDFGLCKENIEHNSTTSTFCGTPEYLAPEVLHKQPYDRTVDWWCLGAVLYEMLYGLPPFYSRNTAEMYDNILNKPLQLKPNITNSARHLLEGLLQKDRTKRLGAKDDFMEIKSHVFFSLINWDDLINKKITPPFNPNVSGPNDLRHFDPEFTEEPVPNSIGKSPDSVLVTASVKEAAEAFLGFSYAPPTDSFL
Description: as §1, §2, §3, §4, §5, §6

CAMK4 (CaMKIV) = molecular target: T3, CAMK4 (CaMKIV) (Homo sapiens, UniProt Q16566)
T3 sequence (Q16566 1-473): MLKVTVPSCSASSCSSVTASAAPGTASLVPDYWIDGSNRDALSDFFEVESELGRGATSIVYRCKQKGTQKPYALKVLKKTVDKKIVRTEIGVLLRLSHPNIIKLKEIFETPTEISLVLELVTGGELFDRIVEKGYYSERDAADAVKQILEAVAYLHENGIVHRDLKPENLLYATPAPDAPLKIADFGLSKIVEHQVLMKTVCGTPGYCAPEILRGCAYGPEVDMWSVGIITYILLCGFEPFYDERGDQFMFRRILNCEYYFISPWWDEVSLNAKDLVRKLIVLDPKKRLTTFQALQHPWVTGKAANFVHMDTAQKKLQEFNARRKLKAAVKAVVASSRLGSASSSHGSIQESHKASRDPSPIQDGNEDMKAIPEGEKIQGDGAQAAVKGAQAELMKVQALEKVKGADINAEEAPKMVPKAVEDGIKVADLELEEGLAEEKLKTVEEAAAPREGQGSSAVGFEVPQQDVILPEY
Description: as §1, §2, §3, §4, §5, §6

EPHA2 = EPHA2 (Homo sapiens, UniProt P29317)
Description: as §1, §2, §3, §4, §5, §6

PDK1 Direct = molecular target: T4, PDK1 Direct (Homo sapiens, UniProt O15530)
T4 sequence (O15530 1-556): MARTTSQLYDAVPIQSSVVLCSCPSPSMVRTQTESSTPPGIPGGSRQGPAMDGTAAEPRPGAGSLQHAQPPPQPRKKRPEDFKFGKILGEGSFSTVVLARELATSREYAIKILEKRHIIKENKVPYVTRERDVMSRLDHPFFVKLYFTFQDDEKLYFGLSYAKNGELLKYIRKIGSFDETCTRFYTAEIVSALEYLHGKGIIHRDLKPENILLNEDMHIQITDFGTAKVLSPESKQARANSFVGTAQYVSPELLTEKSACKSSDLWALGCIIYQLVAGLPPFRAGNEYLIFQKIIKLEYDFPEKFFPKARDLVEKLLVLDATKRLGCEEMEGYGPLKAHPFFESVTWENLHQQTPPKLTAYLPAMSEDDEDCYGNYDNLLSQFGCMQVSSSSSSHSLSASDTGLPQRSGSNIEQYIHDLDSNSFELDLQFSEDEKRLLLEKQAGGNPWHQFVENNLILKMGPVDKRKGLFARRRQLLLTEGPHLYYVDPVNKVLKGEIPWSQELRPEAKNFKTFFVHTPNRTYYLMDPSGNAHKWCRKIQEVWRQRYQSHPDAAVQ
Description: as §1, §2, §3, §4, §5, §6

RPS6KB1 (p70S6K) = RPS6KB1 (p70S6K) (Homo sapiens, UniProt P23443)
Sequence of RPS6KB1 (p70S6K) (P23443 whole entry): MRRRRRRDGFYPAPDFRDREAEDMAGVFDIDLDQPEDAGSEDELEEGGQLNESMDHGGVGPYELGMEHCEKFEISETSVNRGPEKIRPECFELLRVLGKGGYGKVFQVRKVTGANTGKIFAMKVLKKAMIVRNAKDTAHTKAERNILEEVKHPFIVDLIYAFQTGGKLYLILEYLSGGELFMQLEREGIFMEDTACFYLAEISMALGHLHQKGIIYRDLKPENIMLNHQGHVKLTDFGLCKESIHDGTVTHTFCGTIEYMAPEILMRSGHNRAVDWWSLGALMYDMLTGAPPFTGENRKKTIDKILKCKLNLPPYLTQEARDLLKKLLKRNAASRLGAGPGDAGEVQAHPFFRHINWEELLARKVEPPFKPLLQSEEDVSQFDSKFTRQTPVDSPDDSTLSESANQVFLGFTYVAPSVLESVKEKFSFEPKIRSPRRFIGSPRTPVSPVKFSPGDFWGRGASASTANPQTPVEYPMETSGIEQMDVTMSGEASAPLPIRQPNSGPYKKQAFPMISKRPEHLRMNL

Sequence of EPHA2 (P29317 24-976): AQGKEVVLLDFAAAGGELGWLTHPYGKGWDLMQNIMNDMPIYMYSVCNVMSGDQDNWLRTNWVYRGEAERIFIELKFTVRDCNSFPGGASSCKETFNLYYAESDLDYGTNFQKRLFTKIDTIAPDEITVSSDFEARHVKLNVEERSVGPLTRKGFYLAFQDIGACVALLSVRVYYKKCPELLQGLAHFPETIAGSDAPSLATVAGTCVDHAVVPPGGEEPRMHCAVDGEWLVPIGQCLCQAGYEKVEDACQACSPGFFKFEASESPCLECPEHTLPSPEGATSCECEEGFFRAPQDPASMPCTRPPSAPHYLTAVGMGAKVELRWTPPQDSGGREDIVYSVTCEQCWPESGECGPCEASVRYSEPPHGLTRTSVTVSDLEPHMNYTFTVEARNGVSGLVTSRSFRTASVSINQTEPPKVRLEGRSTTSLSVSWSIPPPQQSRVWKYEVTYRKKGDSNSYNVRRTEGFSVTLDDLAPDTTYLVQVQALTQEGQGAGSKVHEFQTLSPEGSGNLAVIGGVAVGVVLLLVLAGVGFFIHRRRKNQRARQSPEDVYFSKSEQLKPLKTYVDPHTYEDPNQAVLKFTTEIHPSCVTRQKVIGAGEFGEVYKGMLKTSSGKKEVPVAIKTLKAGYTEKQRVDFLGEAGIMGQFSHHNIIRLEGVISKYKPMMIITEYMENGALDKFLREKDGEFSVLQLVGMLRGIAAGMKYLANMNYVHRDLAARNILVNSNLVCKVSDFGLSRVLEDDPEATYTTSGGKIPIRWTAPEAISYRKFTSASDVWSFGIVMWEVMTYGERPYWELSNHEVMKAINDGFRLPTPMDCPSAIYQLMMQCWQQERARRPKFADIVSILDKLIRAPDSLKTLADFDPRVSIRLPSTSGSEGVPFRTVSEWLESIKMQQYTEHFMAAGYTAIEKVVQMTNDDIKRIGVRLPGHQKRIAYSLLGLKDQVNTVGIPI
Sequence of PAK1 (Q13153 whole entry): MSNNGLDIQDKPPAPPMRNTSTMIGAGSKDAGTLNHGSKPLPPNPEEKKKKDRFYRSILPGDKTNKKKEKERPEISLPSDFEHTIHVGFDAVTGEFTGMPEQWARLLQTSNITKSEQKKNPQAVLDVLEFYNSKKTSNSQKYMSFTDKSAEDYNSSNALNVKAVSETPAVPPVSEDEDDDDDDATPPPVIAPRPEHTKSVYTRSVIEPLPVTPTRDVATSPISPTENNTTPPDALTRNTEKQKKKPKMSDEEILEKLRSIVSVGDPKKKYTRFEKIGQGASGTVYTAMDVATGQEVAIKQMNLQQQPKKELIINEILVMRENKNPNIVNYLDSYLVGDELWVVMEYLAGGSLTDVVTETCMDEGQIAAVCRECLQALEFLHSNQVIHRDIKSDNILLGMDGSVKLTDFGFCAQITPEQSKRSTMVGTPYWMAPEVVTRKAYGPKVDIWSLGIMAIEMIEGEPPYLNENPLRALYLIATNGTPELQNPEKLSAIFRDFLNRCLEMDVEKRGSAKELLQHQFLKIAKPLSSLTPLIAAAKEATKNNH

| Compound | inhibition at 1 µM (BMX) | inhibition at 1 µM (PAK1) | inhibition at 1 µM (PRKCG (PKC gamma)) | inhibition at 1 µM (SGK (SGK1)) | inhibition at 1 µM (CAMK4 (CaMKIV)) | inhibition at 1 µM (EPHA2) | inhibition at 1 µM (PDK1 Direct) | inhibition at 1 µM (RPS6KB1 (p70S6K)) |
| --- | --- | --- | --- | --- | --- | --- | --- | --- |
| C=CC(=O)Nc1cccc(C(=O)NC2CCN(Cc3ccc(-c4nc5cc[nH]c(=O)c5cc4-c4ccccc4)cc3)CC2)c1 [30b] | 44% | 4% | 0% | 29% | 10% | 4% | 1% | 8% |
| C=CC(=O)Nc1ccc2c(c1)n(C1CCN(Cc3ccc(-c4nc5cc[nH]c(=O)c5cc4-c4ccccc4)cc3)CC1)c(=O)n2C [24b] | 28% | 12% | -3% | 19% | -1% | -6% | 8% | 32% |
| C=CC(=O)Nc1cc(NC(=O)NC2CCN(Cc3ccc(-c4nc5cc[nH]c(=O)c5cc4-c4ccccc4)cc3)CC2)ccc1Cl [compound 27] | 3% | -2% | -6% | 21% | 8% | -3% | 3% | 29% |
